The target of data set [1] is T1, sigma-2 receptor (Homo sapiens, UniProt Q5BJF2). As to conditions: literature (Perrone 2000; Berardi 1996); cited from earlier work.
In data set [2] the target is T1, sigma-2 receptor. The settings on record: literature (Perrone 2000; Berardi 1996); cited from earlier work. This is another data set of the same source.
Data set [3] relates to sigma-2 receptor (affinity chromatography-eluted proteins from SK-N-SH membranes). As to the kind of experiment: saturation binding analysis with [3H]-DTG on affinity column-eluted proteins. Also noted: species or system human. The settings on record: [3H]-DTG saturation, FIG. 2A.
Description: The samples, containing 400 μg of protein, radioligand, 10 μM of unlabeled DTG to determine nonspecific binding, and 1 μM of (+)-pentazocine to mask the sigma-1 receptors, were brought to equilibrium Into a final volume of 500 μL 50 mM Tris-HCl at pH 8.0 for 120 min at 25° C. At equilibrium, 5 mL buffer (50 mM Tris-HCl, pH 7.4) were added. Samples were filtered on GF/C membranes, acclimatized in 0.5% PEI for 30 min prior to use. Filters were washed twice with the buffer (5 mL). Radioactivity count was performed on a LS-6500 Beckman Scintillation Counter.
Data set [4] has as its target T1, sigma-2 receptor. As to the kind of experiment: sigma-2 receptor affinity. It counts as binding.
In data set [5] the target is T1, sigma-2 receptor. As to the kind of experiment: sigma-2 receptor activity.
The target of data set [6] is mixture of the affinity column-eluted histone proteins (sigma-2 receptor). As to the kind of experiment: competition binding assay with [3H]-DTG on mixture of affinity column-eluted histone proteins. As to conditions: 20 mcg histone proteins, radioligand [3H]-DTG. Also noted: species or system human. The method, then:
The formation of a complex was highlighted through an assay in which the histone proteins were suspended in 50 mM Tris pH 8.0. […] At equilibrium, determined by the above-mentioned kinetic studies, the histone/radioligand complex was separated after 120 min by filtration on glass fiber (GF/C) membranes, and quantification of the same was performed by radioactivity count.
The sample was incubated for 120 min at 25° C., then the histone/radioligand complex was rapidly filtered on ø 25 mm GF/C membranes. The filter was washed twice with 3 mL buffer. Scintillation liquid was added and a radioactivity reading was performed. The displacement rate was calculated as difference (%) with respect to the specific binding measures by using 10 μM of DTG.

In data set [7] the test system is neuroblastoma or glioma tumour cells. As to the kind of experiment: cytotoxicity assay (LDH level). It is filed as cell-based. The protocol:
(§1) The antiproliferative assay for compounds was performed by using the MTT assay (Mossman et al. 1983, J. Immunol. Methods 65, pp 55-63). The cytotoxicity assay was performed by measuring the LDH level as reported by Vilner and Bowen 2000, J. Pharmacol. Exp. Ther. 292, pp 408-413. The detailed experimental part is reported in Colabufo et al. 2004, Naunyn Schmiedeberg's Arch. Pharmacol. 370, pp. 106-113.

For data set [8] the test system is unchanged. As to the kind of experiment: antiproliferative assay (MTT). It is filed as cell-based. The protocol:
as §1

Each structure is given as a SMILES string.

T1 sequence (Q5BJF2 whole entry, species assumed): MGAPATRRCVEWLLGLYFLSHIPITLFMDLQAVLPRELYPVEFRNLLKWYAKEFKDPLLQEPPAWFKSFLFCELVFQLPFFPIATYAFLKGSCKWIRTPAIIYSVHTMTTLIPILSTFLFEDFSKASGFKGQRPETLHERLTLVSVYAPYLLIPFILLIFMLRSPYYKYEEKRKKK

As for `COc1cccc2c1CCCC2CCCN1CCN(C2CCCCC2)CC1` (centres unmarked) [PB28], at sigma-2 receptor [1], the “agonist activity at sigma-2 receptor” value is given as “potent agonist activity”. Moreover, the “affinity for sigma-2 receptor” value at sigma-2 receptor [2] is “high affinity”.

Take `Cc1ccccc1N=C(N)Nc1ccccc1C` [[^3H]-DTG]: the Bmax in data set [3] is 588±50 fmol/mg of protein.

`COc1ccc(N)c2c1CCCC2CCCN1CCN(C2CCCCC2)CC1` (centres unmarked) [compound 2, 1-cyclohexyl-4-[3-(8-amino-5-methoxy-1,2,3,4-tetrahydronaphtalen-1-yl)propyl]piperazine]: the “affinity of amino-substituted ligand relative to PB28” value at sigma-2 receptor [4] was “unmodified”. The “sigma-2 activity of amino-substituted ligand relative to PB28” value on sigma-2 receptor [5] is “unmodified”.

The term Ki denotes the dissociation constant of the complex between target and ligand, obtained from inhibition or displacement. On to `COc1ccccc1[C@H]1CC[C@H](N2CCN(C3CCCCC3)CC2)CC1` [trans-1-cyclohexyl-4-[4-(2-methoxy-phenyl)cyclohexyl]piperazine], for which, in data set [6], the inhibitory constant (Ki) came out at 68 pM. Also, the cytotoxic activity entry in data set [7] is “homogeneous to results reported in literature for the best ligand known to date: the compound PB28”. Besides, the antiproliferative activity result in data set [8] is reported as “homogeneous to results reported in literature for the best ligand known to date: the compound PB28”.
